Source: PubChem BioAssay (NCI)
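Step 1: Grow cells in 96-well plates. Step 2: Expose to compound for 48 hours at 5 concentrations. Step 3: Interpolate endpoints linearly; if unreached, use highest concentration. Abbreviation: GI50, concentration required for 50% inhibition of growth. TGI is the concentration that stops growth completely.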

How the values were obtained:
Test in all cases: inhibition of tumour cell growth, NCI panel, 48 h
786-0 renal = test system: 786-0 renal
A549 NSCLC = test system: A549 NSCLC
ACHN renal = test system: ACHN renal
BT-549 breast = test system: BT-549 breast
CAKI-1 renal = test system: CAKI-1 renal
CCRF-CEM leukemia = test system: CCRF-CEM leukemia
COLO 205 colon = test system: COLO 205 colon
DU-145 prostate = test system: DU-145 prostate
EKVX NSCLC = test system: EKVX NSCLC
HCC-2998 colon = test system: HCC-2998 colon
HCT-116 colon = test system: HCT-116 colon
HCT-15 colon = test system: HCT-15 colon
HL-60(TB) leukemia = test system: HL-60(TB) leukemia
HOP-62 NSCLC = test system: HOP-62 NSCLC
HOP-92 NSCLC = test system: HOP-92 NSCLC
HS 578T breast = test system: HS 578T breast
IGROV1 ovarian = test system: IGROV1 ovarian
K-562 leukemia = test system: K-562 leukemia
KM12 colon = test system: KM12 colon
LOX IMVI melanoma = test system: LOX IMVI melanoma
M14 melanoma = test system: M14 melanoma
MCF7 breast = test system: MCF7 breast
MDA-MB-231 breast = test system: MDA-MB-231 breast
MDA-MB-435 = test system: MDA-MB-435
MOLT-4 leukemia = test system: MOLT-4 leukemia
NCI-H226 lung = test system: NCI-H226 lung
NCI-H23 lung = test system: NCI-H23 lung
NCI-H460 lung = test system: NCI-H460 lung
NCI-H522 lung = test system: NCI-H522 lung
NCI/ADR-RES ovarian = test system: NCI/ADR-RES ovarian
OVCAR-3 ovarian = test system: OVCAR-3 ovarian
OVCAR-4 ovarian = test system: OVCAR-4 ovarian
OVCAR-5 ovarian = test system: OVCAR-5 ovarian
OVCAR-8 ovarian = test system: OVCAR-8 ovarian
PC-3 prostate = test system: PC-3 prostate
RPMI-8226 leukemia = test system: RPMI-8226 leukemia
RXF 393 renal = test system: RXF 393 renal
SF-268 CNS = test system: SF-268 CNS
SF-295 CNS = test system: SF-295 CNS
SF-539 CNS = test system: SF-539 CNS
SK-MEL-2 melanoma = test system: SK-MEL-2 melanoma
SK-MEL-28 melanoma = test system: SK-MEL-28 melanoma
SK-MEL-5 melanoma = test system: SK-MEL-5 melanoma
SK-OV-3 ovarian = test system: SK-OV-3 ovarian
SN12C renal = test system: SN12C renal
SNB-19 CNS = test system: SNB-19 CNS
SR leukemia = test system: SR leukemia
SW-620 colon = test system: SW-620 colon
TK-10 renal = test system: TK-10 renal
U251 CNS = test system: U251 CNS
UACC-257 melanoma = test system: UACC-257 melanoma
UACC-62 melanoma = test system: UACC-62 melanoma
UO-31 renal = test system: UO-31 renal

Compound `CCSc1nc(SCC)c2c(-c3ccc(OC)c(OC)c3)c(C#N)c(SCC)nc2n1` has a GI50 (786-0 renal) of 18.7 µM, a TGI (786-0 renal) of 59.1 µM and a GI50 (A549 NSCLC) of 30.4 µM. For the same compound, the TGI (A549 NSCLC) was 79.1 µM, the GI50 (ACHN renal) was 17.8 µM and the TGI (ACHN renal) was 38 µM. For the same compound, the GI50 (BT-549 breast) was 23.5 µM, the TGI (BT-549 breast) was over 100 µM and the GI50 (CAKI-1 renal) was 5.39 µM. The TGI (CAKI-1 renal) was 25.3 µM, the GI50 (CCRF-CEM leukemia) was 83.7 µM and the TGI (CCRF-CEM leukemia) was over 100 µM. The GI50 (COLO 205 colon) was 91.5 µM, the TGI (COLO 205 colon) was over 100 µM and the GI50 (DU-145 prostate) was 17.7 µM. For the same compound, the TGI (DU-145 prostate) was 47.8 µM, the GI50 (EKVX NSCLC) was 17.4 µM and the TGI (EKVX NSCLC) was 53.3 µM. It also gave a GI50 (HCC-2998 colon) of 21 µM, a TGI (HCC-2998 colon) of 49.2 µM and a GI50 (HCT-116 colon) of 30.3 µM. For the same compound, the TGI (HCT-116 colon) was over 100 µM, the GI50 (HCT-15 colon) was 24.6 µM and the TGI (HCT-15 colon) was 61.2 µM. The GI50 (HL-60(TB) leukemia) was 81.1 µM, the TGI (HL-60(TB) leukemia) was over 100 µM and the GI50 (HOP-62 NSCLC) was 22.6 µM. The TGI (HOP-62 NSCLC) was 63.2 µM, the GI50 (HOP-92 NSCLC) was 23.2 µM and the TGI (HOP-92 NSCLC) was 76.7 µM. It also gave a GI50 (HS 578T breast) of 3 µM, a TGI (HS 578T breast) of 19.7 µM and a GI50 (IGROV1 ovarian) of 33.5 µM. The TGI (IGROV1 ovarian) was over 100 µM, the GI50 (K-562 leukemia) was 85.1 µM and the TGI (K-562 leukemia) was over 100 µM. For the same compound, the GI50 (KM12 colon) was 43.1 µM, the TGI (KM12 colon) was over 100 µM and the GI50 (LOX IMVI melanoma) was 22.9 µM. For the same compound, the TGI (LOX IMVI melanoma) was 60.1 µM, the GI50 (M14 melanoma) was 56.2 µM and the TGI (M14 melanoma) was over 100 µM. For the same compound, the GI50 (MCF7 breast) was 14.8 µM, the TGI (MCF7 breast) was over 100 µM and the GI50 (MDA-MB-231 breast) was 13 µM. It also gave a TGI (MDA-MB-231 breast) of 42 µM, a GI50 (MDA-MB-435) of 18.7 µM and a TGI (MDA-MB-435) of 57.8 µM. The GI50 (MOLT-4 leukemia) was 68.5 µM, the TGI (MOLT-4 leukemia) was over 100 µM and the GI50 (NCI-H226 lung) was 20.5 µM. For the same compound, the TGI (NCI-H226 lung) was 54.6 µM, the GI50 (NCI-H23 lung) was 14.9 µM and the TGI (NCI-H23 lung) was 53.1 µM. For the same compound, the GI50 (NCI-H460 lung) was 21.8 µM, the TGI (NCI-H460 lung) was over 100 µM and the GI50 (NCI-H522 lung) was 41.1 µM. It also gave a TGI (NCI-H522 lung) of over 100 µM, a GI50 (NCI/ADR-RES ovarian) of 14.4 µM and a TGI (NCI/ADR-RES ovarian) of 45 µM. For the same compound, the GI50 (OVCAR-3 ovarian) was 10.5 µM, the TGI (OVCAR-3 ovarian) was 32.5 µM and the GI50 (OVCAR-4 ovarian) was 31.8 µM. It also gave a TGI (OVCAR-4 ovarian) of over 100 µM, a GI50 (OVCAR-5 ovarian) of 18.8 µM and a TGI (OVCAR-5 ovarian) of 47.7 µM. The GI50 (OVCAR-8 ovarian) was 43.8 µM, the TGI (OVCAR-8 ovarian) was over 100 µM and the GI50 (PC-3 prostate) was 26.6 µM. For the same compound, the TGI (PC-3 prostate) was over 100 µM, the GI50 (RPMI-8226 leukemia) was 8.38 µM and the TGI (RPMI-8226 leukemia) was 94.4 µM. It also gave a GI50 (RXF 393 renal) of 59.7 µM, a TGI (RXF 393 renal) of over 100 µM and a GI50 (SF-268 CNS) of 14.2 µM. It also gave a TGI (SF-268 CNS) of 77.4 µM, a GI50 (SF-295 CNS) of 12.9 µM and a TGI (SF-295 CNS) of 39.9 µM. For the same compound, the GI50 (SF-539 CNS) was 1.95 µM, the TGI (SF-539 CNS) was 17.2 µM and the GI50 (SK-MEL-2 melanoma) was 63.8 µM. It also gave a TGI (SK-MEL-2 melanoma) of over 100 µM, a GI50 (SK-MEL-28 melanoma) of 41.8 µM and a TGI (SK-MEL-28 melanoma) of over 100 µM. It also gave a GI50 (SK-MEL-5 melanoma) of 26.6 µM, a TGI (SK-MEL-5 melanoma) of 78.8 µM and a GI50 (SK-OV-3 ovarian) of over 100 µM. The TGI (SK-OV-3 ovarian) was over 100 µM, the GI50 (SN12C renal) was 21.7 µM and the TGI (SN12C renal) was 56.7 µM. It also gave a GI50 (SNB-19 CNS) of 47.7 µM, a TGI (SNB-19 CNS) of over 100 µM and a GI50 (SR leukemia) of 26.5 µM. For the same compound, the TGI (SR leukemia) was over 100 µM, the GI50 (SW-620 colon) was 61.1 µM and the TGI (SW-620 colon) was over 100 µM. For the same compound, the GI50 (TK-10 renal) was 17.5 µM, the TGI (TK-10 renal) was 53.3 µM and the GI50 (U251 CNS) was 22.7 µM. For the same compound, the TGI (U251 CNS) was 48.3 µM, the GI50 (UACC-257 melanoma) was 39.4 µM and the TGI (UACC-257 melanoma) was over 100 µM. The GI50 (UACC-62 melanoma) was 18.5 µM, the TGI (UACC-62 melanoma) was 43.4 µM and the GI50 (UO-31 renal) was 32.9 µM. For the same compound, the TGI (UO-31 renal) was over 100 µM.
